Results: Sander's compilation of Henry's law constants (doi:10.1021/jf001510f)

Test: Henry solubility constant Hcp at 310 K (mol/(m3 Pa))
Settings: reference: van Ruth et al. (2001)

With `CCCCOC(C)=O` [butyl ethanoate] the “Henry solubility constant Hcp at 310 K” value was 0.017.
With `CCCCCCCC(C)O` (stereo not given) [2-nonanol] the “Henry solubility constant Hcp at 310 K” value was 0.069.
In the case of `CCCO` [1-propanol], the “Henry solubility constant Hcp at 310 K” value is reported as 0.65.
With `CSC` [dimethyl sulfide] the “Henry solubility constant Hcp at 310 K” value was 0.0049.
With `CCCCCCO` [1-hexanol] the “Henry solubility constant Hcp at 310 K” value was 0.16.
With `CCCCCC(C)=O` [2-heptanone] the “Henry solubility constant Hcp at 310 K” value was 0.025.
With `CCCC(C)O` (stereo not given) [2-pentanol] the “Henry solubility constant Hcp at 310 K” value was 0.23.
In the case of `CCCC(=O)OCC` [ethyl butanoate], the “Henry solubility constant Hcp at 310 K” value is reported as 0.016.
In the case of `CCOC(C)=O` [ethyl ethanoate], the “Henry solubility constant Hcp at 310 K” value is reported as 0.03.
With `CCCCCCCC=O` [octanal] the “Henry solubility constant Hcp at 310 K” value was 0.0088.
In the case of `CCCOC(C)=O` [propyl ethanoate], the “Henry solubility constant Hcp at 310 K” value is reported as 0.018.
For `CCCCCCCCC(C)=O` [2-decanone], the “Henry solubility constant Hcp at 310 K” value was 0.015.
For `CC(C)CCO` [3-methyl-1-butanol], the “Henry solubility constant Hcp at 310 K” value was 0.32.
In the case of `CCCCCCC=O` [heptanal], the “Henry solubility constant Hcp at 310 K” value is reported as 0.011.
In the case of `CCCCCCC(C)=O` [2-octanone], the “Henry solubility constant Hcp at 310 K” value is reported as 0.018.
